Measurements from US11390621B2, “Chiral indole compounds and their use” (ARIAGEN, INC., priority 2019, dated 2022).
Values joined by “and” are separate entries in the source; they are usually repeats but may differ in a detail not shown here. Identical values can stand only once.

Assays:
[1] = Hepatocyte intrinsic clearance assay (metabolic stability), rat hepatocytes; type: in vitro ADME; details: rat, cryopreserved hepatocytes, Rat Hepatocytes, 1 μM test compound
Text: (§1) The liver is an important organ in the body for drug metabolism. This Example describes hepatocyte intrinsic clearance assays using both human and rat hepatocytes to evaluate the metabolic stability of the indole compounds disclosed herein. The parameters measured include t1/2 (half-life), CLint (intrinsic clearance), and EH (hepatic extraction ratio).
(§2) Testosterone (Lot FE111011-01) was obtained from Cerilliant (Round Rock, Tex.). 7-hydroxycoumarin (Lot 11631ED) was obtained from Sigma Aldrich (St. Louis, Mo.). Cryopreserved human hepatocytes pooled from ten donor males (X008001), cryopreserved male IRC/CD-1 mouse hepatocytes (M005052), INVITROGRO HI Medium (incubation), and INVITROGRO HT Medium (thawing) were obtained from Bioreclamation IVT (Baltimore, Md.). All solvents were obtained from commercial sources and used without further purification.
(§3) Each test compound was prepared as a 1 mM stock solution in DMSO. A 2 μM solution of test compound and positive controls were prepared in INVITROGRO HI Medium (incubation). These solutions were pre-warmed in a sterile incubator set to maintain 37° C., 5% CO2, and 98% humidity. Cryopreserved hepatocytes were prepared at a concentration of 2×10^6 living cells/mL in incubation media and pre-warmed in the incubator. The compound solutions and hepatocyte mixtures were then combined at a ratio of 1:1 (v:v). The final volume of the reaction mixture was 750 μL, containing 1 μM test compound (10 μM for 7-hydroxycoumarin) and […]. The reaction mixture was placed in the incubator on a plate shaker. After 0, 15, 30, 60, 90, and 120 minutes of incubation, 100 μL of reaction mixtures were removed from the incubation plate and mixed with 150 μL of ice-cold acetonitrile in a designated well of a 96-well crash plate. The 96-well crash plate was placed on ice for 15 min, and samples were centrifuged (3,600 RPM, 10 min, 4° C.) to precipitate protein. The supernatants were diluted 1:1 (v:v) with water containing 0.15 μM verapamil and/or 1 μM tolbutamide (internal standards for positive and negative modes, respectively) in a 96-well shallow injection plate. This plate was sealed for LC-MS analysis. All measurements were done in duplicate.
(§4) The residual compound remaining (% R) was determined from LC-MS peak areas by comparison to the zero time point. Metabolic half-life (t1/2) and intrinsic clearance (CLint) values were calculated from the slope of the plot of ln (% R) vs. time and the concentration of hepatocytes present in the incubation. Percent remaining at 60 minutes was calculated by plugging in the 60 minute value into the slope equation generated by the percent remaining time points.
(§5) In vivo hepatic clearance CLH was calculated using the well stirred liver model according to the following equation:
(§6) [formula] where QH is the total liver blood flow, fu is unbound fraction of the drug, and CL′int is defined as follows: CL′int=CLint×(10^6 cells/g of liver weight)×(g liver weight/kg of body weight). In the first approximation, used in this study, fu=1.
(§7) Hepatic extraction ratio EH was calculated using the following equation:
(§8) [formula] Corresponding physiological parameters used in calculations for all species are shown below in Table 3.

[2] = system: rat hepatocytes; test: as above; type: in vitro ADME; details: Rat Hepatocytes; for EH (hepatic extraction ratio): well stirred liver model, fu=1
Text: as §1, §2, §3, §4, §5, §6, §7, §8

[3] = system: human hepatocytes; test: Hepatocyte intrinsic clearance assay (metabolic stability), human hepatocytes; type: in vitro ADME; details: Human Hepatocytes; for EH (hepatic extraction ratio): well stirred liver model, fu=1
Text: as §1, §2, §3, §4, §5, §6, §7, §8

[4] = as above; type: in vitro ADME; details: male, human, cryopreserved pooled hepatocytes, Human Hepatocytes, 1 μM test compound
Text: as §1, §2, §3, §4, §5, §6, §7, §8

[5] = target: T1, AhR (Homo sapiens, UniProt P35869); test: EROD assay (7-ethoxy-resorufin-O-deethylase; CYP1A1 activity) in human HepG2 cells; type: cell-based
T1 construct: host or cells: human HepG2 cells
T1 sequence (P35869 11-848): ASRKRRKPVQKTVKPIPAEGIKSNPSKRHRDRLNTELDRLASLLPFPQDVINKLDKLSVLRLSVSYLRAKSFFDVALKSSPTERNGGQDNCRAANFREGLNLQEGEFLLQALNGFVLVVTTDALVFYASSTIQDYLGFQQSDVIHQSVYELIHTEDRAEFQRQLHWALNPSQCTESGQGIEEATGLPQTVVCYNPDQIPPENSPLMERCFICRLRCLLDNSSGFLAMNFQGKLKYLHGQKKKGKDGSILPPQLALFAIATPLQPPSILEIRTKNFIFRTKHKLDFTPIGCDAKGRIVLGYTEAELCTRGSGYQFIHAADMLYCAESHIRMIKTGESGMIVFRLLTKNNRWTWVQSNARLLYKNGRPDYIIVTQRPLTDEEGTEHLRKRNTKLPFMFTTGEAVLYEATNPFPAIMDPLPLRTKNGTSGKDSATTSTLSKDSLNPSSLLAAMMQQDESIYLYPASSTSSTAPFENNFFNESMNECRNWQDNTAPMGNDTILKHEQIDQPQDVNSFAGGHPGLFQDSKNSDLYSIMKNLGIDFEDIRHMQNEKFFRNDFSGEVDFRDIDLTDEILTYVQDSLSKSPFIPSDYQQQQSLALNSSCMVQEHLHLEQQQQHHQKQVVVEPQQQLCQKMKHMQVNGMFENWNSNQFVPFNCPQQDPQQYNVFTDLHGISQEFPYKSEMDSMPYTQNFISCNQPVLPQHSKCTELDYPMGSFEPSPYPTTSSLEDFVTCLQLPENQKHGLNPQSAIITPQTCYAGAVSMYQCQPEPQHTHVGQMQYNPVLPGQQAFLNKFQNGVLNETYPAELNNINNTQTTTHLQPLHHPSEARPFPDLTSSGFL
Experimental: CYP1A1 induction is under the control of the AhR signaling pathway. This Example describes an in vitro assay (7-ethoxy-resorufin-O-deethylase (EROD) assay) that evaluated the AhR modulating activities of the indole compounds described herein. In this assay, the indole compounds were incubated with human HepG2 cells or mouse Hepa1-6 cells. The activity of CYP1A1 in the cells was measured by the conversion of substrate 7-ethoxyresorufin, with the readout being a fluorescence signal associated with the conversion product. The EC50 values of the indole compounds as well as the maximum luminescence induced by them in the assay were determined.
Human HepG2 cells were obtained from Sigma Aldrich (Catalog 85011430-1VL).
Human HepG2 cells were grown to 60-80% confluency in tissue culture flasks, lifted with non-enzymatic cell dissociation solution (cell stripper), seeded in a 384-well plate at 5,000 cells per well, treated with the test compounds, and incubated for 20 hours overnight at 37° C. The treatment medium was removed and a solution of substrate 7-ethoxyresorufin (ETX) was added to initiate the reaction. The plate was incubated at 37° C. for 30 minutes. The reaction was subsequently terminated by adding tempered methanol. Fluorescent emission was measured at 590 nm with excitation at 530 nm in a FLEXSTATION III instrument (Molecular Devices).

[6] = target: T2, CYP1A2 (Homo sapiens, UniProt P05177); test: CYP profiling: human liver microsomes with CYP1A2 inhibitor furafylline; type: in vitro ADME; parameters: % Compound Metabolized at 30 min, CYP1A2 Inhibitor: concentration or dose not given beside the values; details: HLMs; for % Inhibition Relative to Negative Control, 1A2: 30 min
T2 construct: from tissue; host or cells: human liver microsomes
T2 sequence (P05177 1-516): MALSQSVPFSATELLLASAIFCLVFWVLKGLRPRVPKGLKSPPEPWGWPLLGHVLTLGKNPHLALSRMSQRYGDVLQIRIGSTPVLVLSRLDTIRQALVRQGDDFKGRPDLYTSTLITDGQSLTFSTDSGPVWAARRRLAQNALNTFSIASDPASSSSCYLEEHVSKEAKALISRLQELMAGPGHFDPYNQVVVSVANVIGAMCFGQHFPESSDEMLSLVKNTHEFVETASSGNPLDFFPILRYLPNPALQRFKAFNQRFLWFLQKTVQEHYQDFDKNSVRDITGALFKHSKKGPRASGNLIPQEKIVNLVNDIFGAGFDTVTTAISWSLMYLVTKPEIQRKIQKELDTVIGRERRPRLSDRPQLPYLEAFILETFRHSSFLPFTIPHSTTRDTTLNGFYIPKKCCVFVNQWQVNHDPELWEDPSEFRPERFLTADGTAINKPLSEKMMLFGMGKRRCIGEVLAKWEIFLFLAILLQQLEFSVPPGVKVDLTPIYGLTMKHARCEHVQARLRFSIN
Experimental: (§9) In order to investigate the contributions of CYP1A2 and CYP3A4 to the metabolism of the compounds of the present disclosure, human liver microsomes were incubated with the test compounds for 30 minutes in the presence of selective chemical inhibitors furafylline (1A2) and ketoconazole (3A4).

[7] = CYP profiling: turnover in human liver microsomes, 30 min, no inhibitor; type: in vitro ADME; parameters: % Compound Metabolized at 30 min, No Inhibitor: concentration or dose not given beside the values; details: HLMs
Experimental: as §9

[8] = target: T3, CYP3A4 (Homo sapiens, UniProt P08684); test: CYP profiling: human liver microsomes with CYP3A4 inhibitor ketoconazole; type: in vitro ADME; parameters: % Compound Metabolized at 30 min, CYP3A4 Inhibitor: concentration or dose not given beside the values; details: HLMs; for % Inhibition Relative to Negative Control, 3A4: 30 min
T3 construct: from tissue; host or cells: human liver microsomes
Experimental: as §9

[9] = HepG2, human HepG2 cells, Plate 1

T3 sequence (P08684 whole entry): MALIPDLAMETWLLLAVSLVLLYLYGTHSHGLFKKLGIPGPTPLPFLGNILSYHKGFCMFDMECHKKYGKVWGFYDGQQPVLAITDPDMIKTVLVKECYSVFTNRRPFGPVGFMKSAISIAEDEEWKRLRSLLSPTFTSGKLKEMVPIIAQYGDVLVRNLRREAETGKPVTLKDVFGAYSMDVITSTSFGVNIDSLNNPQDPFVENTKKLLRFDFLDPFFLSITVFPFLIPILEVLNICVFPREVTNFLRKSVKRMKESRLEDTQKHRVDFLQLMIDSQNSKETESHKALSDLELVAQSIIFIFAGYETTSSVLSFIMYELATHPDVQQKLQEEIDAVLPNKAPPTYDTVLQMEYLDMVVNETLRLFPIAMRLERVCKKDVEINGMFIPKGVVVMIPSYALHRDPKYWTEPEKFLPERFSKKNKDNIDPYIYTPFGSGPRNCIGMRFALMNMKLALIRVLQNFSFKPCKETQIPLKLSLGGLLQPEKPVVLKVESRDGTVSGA

| Structure (SMILES) | half-life at 1 μM [1] | hepatocyte CLint at 1 μM [1] | EH (hepatic extraction ratio) [2] | EH (hepatic extraction ratio) [3] | half-life at 1 μM [4] | hepatocyte CLint at 1 μM [4] | CLint ([2]; 1 μM test compound) | EC50 ([5]; human HepG2 cells, Plate 1) | EC90 ([5]; human HepG2 cells, Plate 1) | EC50 ([5]; human HepG2 cells, Plate 2) | EC90 ([5]; human HepG2 cells, Plate 2) | CLint ([3]; 1 μM test compound) | EC90 [5, 9] | % Compound Metabolized at 30 min, CYP1A2 Inhibitor [6] | % Inhibition Relative to Negative Control, 1A2 [6] | % Compound Metabolized at 30 min, No Inhibitor [7] | % Compound Metabolized at 30 min, CYP3A4 Inhibitor [8] | % Inhibition Relative to Negative Control, 3A4 [8] |
| --- | --- | --- | --- | --- | --- | --- | --- | --- | --- | --- | --- | --- | --- | --- | --- | --- | --- | --- |
| O=C(c1nc(C(O)C(F)(F)F)cs1)c1c[nH]c2ccccc12 (stereo not drawn) [ARI088] | 60 min | 11.6 µL/min/1e6 cells | 43.7% | 24.1% | 54 min | 12.4 µL/min/1e6 cells |  |  |  |  |  |  |  |  |  |  |  |  |
| CCC(C)(O)c1csc(C(=O)c2c[nH]c3cc(F)ccc23)n1 (stereo not drawn) [ARI209, (6-fluoro-1H-indol-3-yl)(4-(2-hydroxybutan-2-yl)thiazol-2-yl)methanone] | 54 min | 12.2 µL/min/1e6 cells | 44.9% | 25.0% | 48 min | 14.7 µL/min/1e6 cells |  |  |  |  |  |  |  |  |  |  |  |  |
| COC(=O)c1csc(C(=O)c2c[nH]c3ccccc23)n1 [ARI-001, ITE, reference compound] |  |  | 85.7% | 31.3% |  |  | 89.786 μL/min/10^6 cells | 4440 nM | 13200 nM | 29000 nM | 458000 nM | 767.365 μL/min/10^6 cells |  |  |  |  |  |  |
| CC[C@H](O)c1csc(C(=O)c2c[nH]c3ccc(F)cc23)n1 [ARI-194] | 36 min | 18.2 µL/min/1e6 cells | 55.0% | 26.5% | 36 min | 20.5 µL/min/1e6 cells |  | 409 nM |  |  |  |  | 517 nM |  |  |  |  |  |
| CC[C@@H](O)c1csc(C(=O)c2c[nH]c3ccc(F)cc23)n1 [ARI-195] | 78 min | 9.16 µL/min/1e6 cells | 38.0% | 26.5% | 36 min | 20.6 µL/min/1e6 cells |  | 289 nM |  |  |  |  | 847 nM |  |  |  |  |  |
| CCC(O)(CC)c1csc(C(=O)c2c[nH]c3cc(F)ccc23)n1 [ARI-210, (6-fluoro-1H-indol-3-yl)(4-(3-hydroxypentan-3-yl)thiazol-2-yl)methanone] | 24 min | 29.9 µL/min/1e6 cells | 66.7% | 25.4% | 42 min | 16 µL/min/1e6 cells |  | 241 nM |  |  |  |  | 627 nM |  |  |  |  |  |
| CC[C@H](O)c1nc(C(=O)c2c[nH]c3cc(F)ccc23)cs1 [ARI-213] | 48 min | 13.9 µL/min/1e6 cells | 48.1% | 24.7% | 48 min | 14 µL/min/1e6 cells |  | 476 nM |  |  |  |  | 672 nM |  |  |  |  |  |
| CC[C@@H](O)c1nc(C(=O)c2c[nH]c3cc(F)ccc23)cs1 [ARI-214] | 84 min | 8.01 µL/min/1e6 cells | 34.9% | 26.7% | 30 min | 21.5 µL/min/1e6 cells |  | 582 nM |  |  |  |  | 2810 nM |  |  |  |  |  |
| CC(C)(O)c1csc(C(=O)c2c[nH]c3ccccc23)n1 [ARI-215, (1H-indol-3-yl)(4-(2-hydroxypropan-2-yl)thiazol-2-yl)methanone] | 54 min | 13.4 µL/min/1e6 cells | 47.3% | 25.9% | 36 min | 17.9 µL/min/1e6 cells |  | 119 nM |  |  |  |  | 135 nM |  |  |  |  |  |
| Cc1ncc2n1-c1ccc(Cl)cc1C(c1ccccc1F)=NC2 [Midazolam] |  |  |  |  |  |  |  |  |  |  |  |  |  | 96% | 2% | 98% and 97% | 1% and 0% | 99% and 100% |
| CCOc1ccc(NC(C)=O)cc1 [Phenacitin] |  |  |  |  |  |  |  |  |  |  |  |  |  | 3% and 1% | 92% and 97% | 36% and 31% | 23% | 36% |
